In one assay the test system is T1 AAD-12 (v1) canola. Description: 2,4-D DMA tolerance in T1 canola. In kind it is in vivo, Brassica napus. How it is done:
For T1 AAD-12 (v1), 5-6 mg of seed were stratified, sown, and a fine layer of Sunshine Mix #5 media was added as a top layer of soil. Emerging plants were selected with 560 g ae/ha 2,4-D at 7 and 13 days after planting.
Surviving plants were transplanted into 3-inch pots containing Metro Mix media. Surviving plants from T1 progenies, that were selected with 560 g ae/ha 2,4-D, were also transplanted into 3-inch pots filled with Metro Mix soil. At 2-4 leaf stage plants were sprayed with either 280, 560, 1120, or 2240 g ae/ha 2,4-D DMA. Plants were graded at 3 and 14 DAT and compared to untransformed control plants. A sampling of T1 event injury data 14DAT may be seen in Table 30.

Assay [1] deals with PHL tobacco suspension co-cultivated with Agrobacterium carrying pDAB724. Nature of the assay: Tobacco cell transformation with AAD-12 (v1) and 2,4-D selection. Type of assay: cell-based. As to the method: For tobacco transformation experiment, there were 11 treatments altogether: a control set plated on LS-BY2C+dichlorprop medium, and 10 sets of LSBY2C+dichlorprop+2,4-D at varying concentration levels (1, 2, 3, 5, 8, 10, 12, 15, 18, 20 mg/L). There were four replications per treatment. The plasmid DNA vector used was pDAB724, and the vector used for transformation was EHA101S strain of Agrobacterium tumefaciens. Four ml of PHL suspension at 0.6 OD^660 were mixed with 100 ul of Agrobacterium (either EHA101 or LBA4404 strains) suspension at 1.0 OD^660 in a sterile Petri plate and were mixed thoroughly and co-cultivated together in a non-shake condition at a dark growth chamber for 3 days at 25° C. After the co-cultivation period 1.5 ml of the Agro-tobacco suspension mixture was plated to the 11 set of plates above. […] Again, there were four replicates per treatment, as well as a positive and negative control. All media contain 500 mg/L Carbenicillin (C) to control to contain Agrobacterium growth in the selection media.
The plasmid used in these experiments is pDAB724 and it has PAT selectable marker as well. So, control transformation experiments were initiated using R-dichlorprop habituated PHL in the presence of 10 mg/L bialophos following the standard protocol described above. […]

In assay [2] the test system is PAT-only transformed soybean plants. Nature of the assay: 2,4-D leaf paint (leaf flip assay) on PAT-only transformed soybean. In kind it is in vivo, Glycine max. Set-up: key: 1 = Flip; 0 = No Flip. The note with it: event D-2-3 (pDAB4499, PAT, CsVMV). The source says:
Plants that are transferred to the greenhouse can be assayed for the presence of an active PAT gene further with a non-destructive manner by painting a section of leaf of the T0 primary transformant, or progeny thereof, with a glufosinate solution [0.05-2% v/v Liberty Herbicide, preferably 0.25-1.0% (v/v),=500-2000 ppm glufosinate, Bayer Crop Science]. Depending on the concentration used, assessment for glufosinate injury can be made 1-7 days after treatment. Plants can also be tested for 2,4-D tolerance in a non-destructive manner by selective application of a 2,4-D solution in water (0.25-1% v/v commercial 2,4-D dimethylamine salt formulation, preferably 0.5% v/v=2280 ppm 2,4-D ae) to the terminal leaflet of the newly expanding trifoliolate one or two, preferably two, nodes below the youngest emerging trifolioate. […] Glyphosate resistance (in plants transformed with constructs that contain EPSPS) or another glyphosate tolerance gene can be assessed in the T1 generation by postemergence applications of glyphosate with a dose range from 280-2240 g ae/ha glyphosate. […] Individual T0 plants were assessed for the presence of the coding region of the gene of interest (AAD-12 (v1) or PAT v6) and copy number. […]
A subset of the initial transformants were assessed in the T0 generation according to the methods above. […]

Where only a bound is given, the exact number is not on record here.

Turning to `CNC.O=C(O)COc1ccc(Cl)cc1Cl` [2,4-D DMA], the “Average % injury 14 DAT” value in the assay on T1 AAD-12 (v1) canola (T1 pDAB3759(18)009.001, 280 g ae/ha) worked out at 0%; in the assay with T1 AAD-12 (v1) canola (T1 pDAB3759(18)009.001, 560 g ae/ha), 0%; with T1 AAD-12 (v1) canola (T1 pDAB3759(18)009.001, 1120 g ae/ha) it was 0%; in the assay with T1 AAD-12 (v1) canola (T1 pDAB3759(18)009.001, 2240 g ae/ha), 5%; with T1 AAD-12 (v1) canola (T1 pDAB3759(18)022.001, 280 g ae/ha), 0%; in the assay on T1 AAD-12 (v1) canola (T1 pDAB3759(18)022.001, 560 g ae/ha), 0%. Further, the “Average % injury 14 DAT” value with T1 AAD-12 (v1) canola (T1 pDAB3759(18)022.001, 1120 g ae/ha) worked out at 13%; in the assay with T1 AAD-12 (v1) canola (T1 pDAB3759(18)022.001, 2240 g ae/ha) it was 83%; in the assay on T1 AAD-12 (v1) canola (T1 pDAB3759(18)023.001, 280 g ae/ha), 0%; in the assay on T1 AAD-12 (v1) canola (T1 pDAB3759(18)023.001, 560 g ae/ha), 0%; in the assay on T1 AAD-12 (v1) canola (T1 pDAB3759(18)023.001, 1120 g ae/ha), 3%; in the assay on T1 AAD-12 (v1) canola (T1 pDAB3759(18)023.001, 2240 g ae/ha), 6%. For the same compound, the “Average % injury 14 DAT” value is recorded as 0% in the assay with T1 AAD-12 (v1) canola (T1 pDAB3759(18)030.001, 280 g ae/ha); 0% in the assay on T1 AAD-12 (v1) canola (T1 pDAB3759(18)030.001, 560 g ae/ha); 5% in the assay with T1 AAD-12 (v1) canola (T1 pDAB3759(18)030.001, 1120 g ae/ha); 31% in the assay on T1 AAD-12 (v1) canola (T1 pDAB3759(18)030.001, 2240 g ae/ha); 0% with T1 AAD-12 (v1) canola (T1 pDAB3759(33)013.001, 280 g ae/ha); 0% in the assay on T1 AAD-12 (v1) canola (T1 pDAB3759(33)013.001, 560 g ae/ha). Moreover, the “Average % injury 14 DAT” value in the assay with T1 AAD-12 (v1) canola (T1 pDAB3759(33)013.001, 1120 g ae/ha) is 0%; with T1 AAD-12 (v1) canola (T1 pDAB3759(33)013.001, 2240 g ae/ha), 1%.
`O=C(O)COc1ccc(Cl)cc1Cl` [2,4-D, 2,4-dichlorophenoxyacetic acid]: in assay [1] (20, 40, 60, 80, 100, and 120 mg/L 2,4-D tested), the “2,4-D concentration beyond which bulked AAD-12 (v1) callus did not grow” value was at most 20 mg/L. Besides, the “sub-lethal concentration of 2,4-D (above it lethal to the non-transformed cells)” value in assay [1] (LS-BY2C+dichlorprop medium) is recorded as 10 mg/L. The “Leaf flip assay (18 HAT) Node N-2” value in assay [2] worked out at 1.

These data come from patent US11371055B2, “Herbicide resistance genes” (CORTEVA AGRISCIENCE LLC, priority 2005, dated 2022).
